Patent US7919508B2, “3-piperidinylisochroman-5-ols as dopamine agonists” (Aventis Pharmaceuticals Inc., priority 2004, dated 2011)
Structures can show the parent of a compound that is named as a salt. Where two headings read alike, the source gives them in different places.

Key:
[1] = target: T1, human dopamine D1 receptor (Homo sapiens, UniProt P21728); experiment: [3H]-SCH-23390 binding to cloned human dopamine D1 receptors (CHO cell membranes)
T1 construct: A 1.4 Kb Hind III to Xho I fragment was subcloned into the vector pMMLV; expressed in transfected cells; host or cells: CHO cells, clone CHO-D1M#9 (plasmid pHD1MMLV), membranes
T1 sequence (P21728 whole entry, the tested form may be a part): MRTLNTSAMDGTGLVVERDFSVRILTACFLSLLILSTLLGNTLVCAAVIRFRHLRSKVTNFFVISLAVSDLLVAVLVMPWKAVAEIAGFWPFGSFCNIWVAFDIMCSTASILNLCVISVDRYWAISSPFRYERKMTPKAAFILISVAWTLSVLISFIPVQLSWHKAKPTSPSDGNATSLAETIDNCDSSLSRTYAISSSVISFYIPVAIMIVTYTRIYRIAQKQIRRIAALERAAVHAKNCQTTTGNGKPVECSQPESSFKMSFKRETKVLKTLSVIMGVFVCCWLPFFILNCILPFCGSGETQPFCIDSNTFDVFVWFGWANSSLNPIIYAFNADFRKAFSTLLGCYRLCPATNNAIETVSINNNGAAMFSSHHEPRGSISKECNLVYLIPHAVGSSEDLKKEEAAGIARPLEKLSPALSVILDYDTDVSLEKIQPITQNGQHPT

D1 receptor = target: T2, D1 receptor (Homo sapiens, UniProt P21728); experiment: D1 Activation Adenylyl Cyclase Assay (cAMP FlashPlate, D1 transfected CHO cell line); assay type: cell-based
T2 construct: expressed in transfected cells; host or cells: D1 transfected CHO cell line
T2 sequence (P21728 whole entry): as the sequence (P21728 whole entry, the tested form may be a part) above
Summary of the method: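 D1-transfected CHO cells (50,000/well) were exposed to compound 1/10 serial dilutions for 8 min at RT; cAMP measured by competitive 125I-cAMP FlashPlate against a standard curve. Response normalised between basal and saturating D1 agonist; EC50 at half-maximal stimulation, plateau reported as % maximal dopamine stimulation.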

[2] = target: human dopamine D2Long (D2L) receptors (Homo sapiens, UniProt P14416)
human dopamine D2Long (D2L) receptors, sequence (P14416 whole entry): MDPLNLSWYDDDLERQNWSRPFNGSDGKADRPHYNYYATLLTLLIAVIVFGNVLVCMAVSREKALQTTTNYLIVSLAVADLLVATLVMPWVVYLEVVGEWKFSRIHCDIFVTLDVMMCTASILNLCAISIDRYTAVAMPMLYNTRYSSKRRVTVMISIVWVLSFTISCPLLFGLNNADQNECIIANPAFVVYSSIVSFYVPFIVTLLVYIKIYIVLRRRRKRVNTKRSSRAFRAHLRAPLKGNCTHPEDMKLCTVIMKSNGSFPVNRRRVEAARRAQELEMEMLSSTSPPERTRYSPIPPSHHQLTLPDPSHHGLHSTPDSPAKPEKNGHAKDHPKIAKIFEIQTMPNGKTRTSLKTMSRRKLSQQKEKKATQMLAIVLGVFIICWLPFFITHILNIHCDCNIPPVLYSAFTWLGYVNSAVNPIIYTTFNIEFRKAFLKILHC

[3] = competitive binding, [3H]-SCH-23390, cloned human D1 in CHO membranes, read-out: D1 affinity Ki
[4] = agonist activity at the D1 receptor, adenylate cyclase assay, D1 transfected CHO cell line, read-out: D1 EC50

| Structure (SMILES) | Ki [1] [nM] | EC50 (D1 receptor) [nM] | Ki [2] [nM] | Ki [1, 3] [nM] | EC50 (D1 receptor; [4]) [nM] |
| --- | --- | --- | --- | --- | --- |
| Cc1ccc2c(c1O)C[C@@H](C1CCN(C(=O)Oc3ccc(Cl)cc3)CC1)O[C@H]2CN [Example 115, 4-((1R,3S)-1-Aminomethyl-5-hydroxy-6-methyl-isochroman-3-yl)-piperidine-1-carboxylic acid 4-chloro-phenyl ester hydrochloride] | 39 | 48 | 506 |  |  |
| Cc1ccc2c(c1O)C[C@@H](C1CCN(C(=O)Oc3ccccc3Cl)CC1)O[C@H]2CN [Example 116, 4-((1R,3S)-1-Aminomethyl-5-hydroxy-6-methyl-isochroman-3-yl)-piperidine-1-carboxylic acid 2-chloro-phenyl ester hydrochloride] | 32.6 | 4.6 | ≥ 100000 |  |  |
| Cc1ccc2c(c1O)C[C@@H](C1CCN(C(=O)Oc3ccc(Br)cc3)CC1)O[C@H]2CN [Example 117, 4-((1R,3S)-1-Aminomethyl-5-hydroxy-6-methyl-isochroman-3-yl)-piperidine-1-carboxylic acid 4-bromo-phenyl ester hydrochloride] | 59 | 4.3 | 404 |  |  |
| Cc1ccc2c(c1O)C[C@@H](C1CCN(C(=O)Oc3ccc(F)cc3)CC1)O[C@H]2CN [Example 118, 4-((1R,3S)-1-Aminomethyl-5-hydroxy-6-methyl-isochroman-3-yl)-piperidine-1-carboxylic acid 4-fluoro-phenyl ester hydrochloride] | 40 | 8.5 | ≥ 10000 |  |  |
| Cc1ccc2c(c1O)C[C@@H](C1CCN(C(=O)Oc3ccccc3C(F)(F)F)CC1)O[C@H]2CN [Example 119, 4-((1R,3S)-1-Aminomethyl-5-hydroxy-6-methyl-isochroman-3-yl)-piperidine-1-carboxylic acid 2-trifluoromethyl-phenyl ester hydrochloride] | 54 | 3.1 | 649 |  |  |
| COc1ccc(OC(=O)N2CCC([C@@H]3Cc4c(ccc(C)c4O)[C@H](CN)O3)CC2)cc1 [Example 120, 4-((1R,3S)-1-Aminomethyl-5-hydroxy-6-methyl-isochroman-3-yl)-piperidine-1-carboxylic acid 4-methoxy-phenyl ester hydrochloride] | 45 | 36 | 767 |  |  |
| Cc1ccc2c(c1O)C[C@@H](C1CCN(C(=O)Oc3ccccc3O)CC1)O[C@H]2CN [Example 121, 4-((1R,3S)-1-Aminomethyl-5-hydroxy-6-methyl-isochroman-3-yl)-piperidine-1-carboxylic acid 2-hydroxy-phenyl ester hydrochloride] | 31 | 2.5 | 613 |  |  |
| Cc1ccc2c(c1O)C[C@@H](C1CCN(C(=O)Oc3ccc4ccccc4c3)CC1)O[C@H]2CN [Example 123, 4-((1R,3S)-1-Aminomethyl-5-hydroxy-6-methyl-isochroman-3-yl)-piperidine-1-carboxylic acid naphthalen-2-yl ester hydrochloride] | 37 | 10 | 154 |  |  |
| Cc1ccc2c(c1O)C[C@@H](C1CCN(C(=O)Nc3cc(C(F)(F)F)ccc3F)CC1)O[C@H]2CN [Example 124, 4-((1R,3S)-1-Aminomethyl-5-hydroxy-6-methyl-isochroman-3-yl)-piperidine-1-carboxylic acid (2-fluoro-5-trifluoromethyl-phenyl)-amide hydrobromide] |  |  | ≥ 10000 | 486 | 20 |
| COc1cccc(NC(=O)N2CCC([C@@H]3Cc4c(ccc(C)c4O)[C@H](CN)O3)CC2)c1 [Example 125, 4-((1R,3S)-1-Aminomethyl-5-hydroxy-6-methyl-isochroman-3-yl)-piperidine-1-carboxylic acid (3-methoxy-phenyl)-amide] |  |  | ≥ 10000 | 79 | 60 |
| Cc1ccc2c(c1O)C[C@@H](C1CCN(C(=O)Nc3cccc(O)c3)CC1)O[C@H]2CN [Example 126, 4-((1R,3S)-1-Aminomethyl-5-hydroxy-6-methyl-isochroman-3-yl)-piperidine-1-carboxylic acid (3-hydroxy-phenyl)-amide] |  |  | 328 | 21 | 1.7 |
| Cc1ccc2c(c1O)C[C@@H](C1CCN(C(=O)Nc3ccc(F)cc3)CC1)O[C@H]2CN [Example 128, 4-((1R,3S)-1-Aminomethyl-5-hydroxy-6-methyl-isochroman-3-yl)-piperidine-1-carboxylic acid (4-fluoro-phenyl)-amide hydrochloride] |  |  | ≥ 10000 | 106 | 6000 |
| Cc1ccc2c(c1O)C[C@@H](C1CCN(C(=O)Nc3ccccc3F)CC1)O[C@H]2CN [Example 129, 4-((1R,3S)-1-Aminomethyl-5-hydroxy-6-methyl-isochroman-3-yl)-piperidine-1-carboxylic acid (2-fluoro-phenyl)-amide hydrochloride] |  |  | ≥ 10000 | 113 | 2000 |
| Cc1ccc2c(c1O)C[C@@H](C1CCN(C(=O)N(C)c3ccccc3)CC1)O[C@H]2CN [Example 131, 4-((1R,3S)-1-Aminomethyl-5-hydroxy-6-methyl-isochroman-3-yl)-piperidine-1-carboxylic acid methyl-phenyl-amide hydrochloride] |  |  | ≥ 10000 | 51 | 6.4 |
| Cc1ccc2c(c1O)C[C@@H](C1CCN(C(=O)N3CCCC3)CC1)O[C@H]2CN [Example 135, [4-((1R,3S)-1-Aminomethyl-5-hydroxy-6-methyl-isochroman-3-yl)-piperidin-1-yl]-pyrrolidin-1-yl-methanone hydrochloride] |  |  | ≥ 100000 | 61.5 | 2.8 |
| CCCCN(CCCC)C(=O)N1CCC([C@@H]2Cc3c(ccc(C)c3O)[C@H](CN)O2)CC1 [Example 139, 4-((1R,3S)-1-Aminomethyl-5-hydroxy-6-methyl-isochroman-3-yl)-piperidine-1-carboxylic acid dibutylamide hydrochloride] |  |  | 204 | 137 | 0.11 |
| Cc1ccc2c(c1O)C[C@@H](C1CCN(S(=O)(=O)Cc3ccccc3)CC1)O[C@H]2CN [Example 142, (1R,3S)-1-Aminomethyl-6-methyl-3-(1-phenylmethanesulfonyl-piperidin-4-yl)-isochroman-5-ol hydrochloride] |  |  | ≥ 100000 | 18 | 1.9 |
| COc1ccc(S(=O)(=O)N2CCC([C@@H]3Cc4c(ccc(C)c4O)[C@H](CN)O3)CC2)cc1OC [Example 144, (1R,3S)-1-Aminomethyl-3-[1-(3,4-dimethoxy-benzenesulfonyl)-piperidin-4-yl]-6-methyl-isochroman-5-ol hydrochloride] |  |  | 602 | 91 | 3.6 |
| Cc1ccc2c(c1O)C[C@@H](C1CCN(S(=O)(=O)c3ccc(C(C)(C)C)cc3)CC1)O[C@H]2CN [Example 146, (1R,3S)-1-Aminomethyl-3-[1-(4-tert-butyl-benzenesulfonyl)-piperidin-4-yl]-6-methyl-isochroman-5-ol hydrochloride] |  |  | 531 | 89 | 79 |
| Cc1ccc2c(c1O)C[C@@H](C1CCN(S(=O)(=O)c3ccc4ccccc4c3)CC1)O[C@H]2CN [Example 147, (1R 3S)-1-Aminomethyl-6-methyl-3-[1-(naphthalene-2-sulfonyl)-piperidin-4-yl]-isochroman-5-ol hydrochloride] |  |  | 623 | 108 | 394 |
| Cc1ccc2c(c1O)C[C@@H](C1CCN(S(=O)(=O)c3cc(Cl)ccc3Cl)CC1)O[C@H]2CN [Example 151, (1R,3S)-1-Aminomethyl-3-[1-(2,5-dichloro-benzenesulfonyl)-piperidin-4-yl]-6-methyl-isochroman-5-ol hydrochloride] |  |  | ≥ 100000 | 82 | 58 |
| Cc1ccc2c(c1O)C[C@@H](C1CCN(S(=O)(=O)CC(F)(F)F)CC1)O[C@H]2CN [Example 157, (1R,3S)-1-Aminomethyl-6-methyl-3-[1-(2,2,2-trifluoro-ethanesulfonyl)-piperidin-4-yl]-isochroman-5-ol hydrochloride] |  |  | 434 | 2.07 | 460 |
| Cc1ccc2c(c1O)C[C@@H](C1CCN(S(=O)(=O)Cc3ccccc3[N+](=O)[O-])CC1)O[C@H]2CN [Example 158, (1R,3S)-1-Aminomethyl-6-methyl-3-[1-(2-nitro-phenylmethanesulfonyl)-piperidin-4-yl]-isochroman-5-ol hydrochloride] |  |  | ≥ 100000 | 95.2 | 11 |
| Cc1ccc2c(c1O)C[C@@H](C1CCN(S(=O)(=O)CCc3cccc4ccccc34)CC1)O[C@H]2CN [Example 159, (1R,3S)-1-Aminomethyl-6-methyl-3-[1-(2-naphthalen-1-yl-ethanesulfonyl)-piperidin-4-yl]-isochroman-5-ol hydrochloride] |  |  | ≥ 100000 | 64.5 | 35 |
| Cc1ccc2c(c1O)C[C@@H](C1CCN(S(=O)(=O)N3CCc4ccccc4C3)CC1)O[C@H]2CN [Example 167, (1R,3S)-1-Aminomethyl-3-[1-(3,4-dihydro-1H-isoquinoline-2-sulfonyl)-piperidin-yl]-6-methyl-isochroman-5-ol hydrochloride] |  |  | 528 | 74 | 77 |
